From ChEMBL document CHEMBL3792274, “Neuroprotective oleanane triterpenes from the roots of Bupleurum chinense” (Bioorg Med Chem Lett, 2016) come the findings set out here.

Each structure is given as a SMILES string.

For orientation: IC50 means the point on the concentration scale where inhibition reaches its midpoint. Read a high IC50 as weaker potency.

Test [1] has as its system Bcap37. In words: Cytotoxicity against human Bcap37 cells after 48 hrs by MTT assay. Format: cell-based. The following applies: Bcap37, 48 h. On the technique in general: Formazan colour is commonly taken as a measure of viable cells.
Test [2] deals with SH-SY5Y. In words: Neuroprotective activity against H2O2-induced neuronal cell death in human SH-SY5Y cells assessed as cell viability at 50 uM pretreated for 12 hrs followed by H2O2 addition measured after 3 hrs by MTT assay relative to control. Format: functional. The following applies: read-out: Activity.
For test [3], the system named is SH-SY5Y. As to the kind of experiment: Neuroprotective activity against H2O2-induced neuronal cell death in human SH-SY5Y cells assessed as cell viability at 25 uM pretreated for 12 hrs followed by H2O2 addition measured after 3 hrs by MTT assay relative to control. Format: functional. The following applies: read-out: Activity.
Test [4] concerns A549. As to the kind of experiment: Cytotoxicity against human A549 cells after 48 hrs by MTT assay. Format: cell-based. The following applies: A549, 48 h.
The subject of test [5] is HepG2. As to the kind of experiment: Cytotoxicity against human HepG2 cells after 48 hrs by MTT assay. The following applies: HepG2, 48 h. Format: cell-based.
A short description of test [6]: Cytotoxicity against human Hep3B cells after 48 hrs by MTT assay. Format: cell-based, Hep 3B2.
Test [7] concerns SH-SY5Y. As to the kind of experiment: Neuroprotective activity against H2O2-induced neuronal cell death in human SH-SY5Y cells assessed as cell viability at 100 uM pretreated for 12 hrs followed by H2O2 addition measured after 3 hrs by MTT assay relative to control. Format: functional. The following applies: read-out: Activity.
In test [8] the test system is MCF7. As to the kind of experiment: Cytotoxicity against human MCF7 cells after 48 hrs by MTT assay. Format: cell-based. The following applies: MCF7, 48 h.

For the compound `CO[C@H]1C=C2[C@H]3CC(C)(C)CC[C@@]3(CO)[C@H](O)C[C@]2(C)[C@@]2(C)CC[C@@H]3C(C)(C)[C@H](O[C@@H]4O[C@H](CO[C@H]5O[C@@H](CO)[C@H](O)[C@@H](O)[C@@H]5O)[C@@H](O[C@@H]5O[C@@H](C)[C@H](O)[C@@H](O)[C@H]5O)[C@H](O)[C@H]4O)CC[C@@]3(C)[C@H]12`, the IC50 in test [1] is greater than 80 µM; in test [4], greater than 80 µM; in test [5], greater than 80 µM; in test [6] it was 75.7 µM; in test [8], greater than 80 µM. Also, the viability at 50 µM in test [2] turned out to be 50%. In test [3], the viability at 25 µM came out at 58.4%. Moreover, in test [7], the viability at 100 µM came to 20.2%.
